{
  "source": "patent US9481709B2",
  "about": "“Boropeptide inhibitors of enteropeptidase and their uses in treatment of obesity, overweight and/or diseases associated with an abnormal fat metabolism” (OBE THERAPY BIOTECHNOLOGY, priority 2007, dated 2016)",
  "test": "Effect on absorption of 14C-proteins after oral administration",
  "assay_type": "in vivo",
  "settings": "for Cmax of 14C-protein radioactivity in plasma: control 0.9%±0.27; for AUC mean of 14C-protein radioactivity in plasma: control 2.214±0.1875; for plateau concentration of 14C-protein radioactivity in plasma: 1 h to 4 h post-administration, control 0.5%",
  "protocol": "3. Effect of OBE2001 on Protein Absorption\nThis third in vivo experiment was designed to obtain information on the absorption of ^14C-proteins in absence or in presence of OBE2001 at two different doses (5 mg/Kg or 50 mg/Kg) after an oral administration to male Swiss mice.\n15 male Swiss (CD-1) mice, 5 weeks-old and having a mean body weight of 0.021±0.002 kg were divided in 3 groups: • Control Group (G1; solvant) containing 5 mice, received water at 5 mL/Kg at t-5 min and ^14C-proteins at 10 mL/Kg at T=0 min; • Group 2 (G2) containing 5 mice (OBE 5 mg/Kg), received OBE2001 at 5 mg/Kg at t-5 min and ^14C-proteins at 10 mL/Kg at T=0 min; • Group 3 (G3) containing […] (OBE 50 mg/Kg), received OBE2001 at 50 mg/Kg at t-5 min and ^14C-proteins at 10 mL/Kg at T=0 min.\nA preparation containing 5 ml of Clinoleic 20 (Baxter Ref DDB9500) with 1 g of glucose (Sigma; ref:G8270) and 1 g of casein (Sigma; ref: C3400) was prepared. Water was added until the solution reached 10 ml. After concentration of the radioactive solution containing the ^14C proteins (GE Healthcare; ref: CFA626) (×10), 200 μl of this radioactive solution was added to 2.8 ml of the preparation, in order to reach a concentration of ca 3.3 μCi/ml. The animals were starved before administration of this radioactive preparation. The radioactive preparation was orally administered by intragastric gavage with a single dosing (ca 33.3 μCi/kg) in a volume of ca 10 ml/kg of body weight.\nOBE2001 was provided in a mixture of two salts (HCl and TFA) with a 90% purity. OBE2001 was orally administered by intragastric gavage with a single dosing of 5 mg/Kg for G2 and 50 mg/Kg for G3 in a volume of ca 5 mL/kg body-weight.\nPlasma aliquots were removed and placed into 6 ml pre-weighed plastic vials, at t+15, t+30, t+60, t+120 and t+240 min. About 4 ml Pico-fluor 40 was added and after shaking, the total radioactivity contained within the different samples was determined by liquid scintillation using a Packard 1900 CA spectrometer equipped with an external standard system (spectral analysis). A quenching curve for calibration purposes was set up using a ^14C quenched set supplied by Packard Instruments.\nLiquid scintillation (LS) Counting was carried out with 2 sigma=2%, and for a maximum duration of 5 minutes (according to the method created in the 1900CA® software). Dpm (disintegration per minute) values of less than twice the background level of blank biological medium were reported as BLQ (Below the Limit of Quantitation).",
  "data": [
    {"smiles": "CC(=O)N[C@@H](C)C(=O)N[C@@H](Cc1ccccc1)C(=O)N[C@@H](CCCNC(=N)N)B1OC2C[C@@H]3C[C@@H](C3(C)C)[C@]2(C)O1", "note": "(some centres unmarked) [OBE2001]", "values": [
      {"measurement": "Cmax of 14C-protein radioactivity in plasma", "setting": "5 mg/kg oral at t-5 min", "value": "0.58%±0.54 % of administered dose/g"},
      {"measurement": "AUC mean of 14C-protein radioactivity in plasma", "setting": "5 mg/kg", "value": "1.841±0.6402", "unit": "% dose.h.g-1"},
      {"measurement": "Cmax of 14C-protein radioactivity in plasma", "setting": "50 mg/kg oral at t-5 min", "value": "0.54%±0.24 % of administered dose/g"},
      {"measurement": "AUC mean of 14C-protein radioactivity in plasma", "setting": "50 mg/kg", "value": "1.718±0.4366", "unit": "% dose.h.g-1"},
      {"measurement": "plateau concentration of 14C-protein radioactivity in plasma", "setting": "5 mg/kg", "value": 0.4, "unit": "% administered dose/g"},
      {"measurement": "plateau concentration of 14C-protein radioactivity in plasma", "setting": "50 mg/kg", "value": 0.4, "unit": "% administered dose/g"},
      {"measurement": "protein absorption compared to control mice", "setting": "first 30 minutes after protein administration, maintained at least 4 hours", "value": "greatly decreased"},
      {"measurement": "morbidity or mortality", "setting": "single oral dose 5 or 50 mg/kg, male Swiss mice", "value": "no sign of morbidity or mortality occurred"}
    ]}
  ]
}
